In the NIST ThermoML archive (doi:10.1021/acs.jced.7b00002):

Experiment: xn = mol fraction of the nth substance listed
Settings: 97.6 kPa, Liquid; for mass density: Vibrating tube method; for viscosity: Capillary tube (Ostwald / Ubbelohde) method

CCCCCCCC[n+]1ccn(C)c1.[Cl-] [1-methyl-3-octylimidazolium chloride] + CN(C)C=O
Settings | mass density [kg/m3] | viscosity [mPa·s]
328.15 K, x1 = 0.119 | 945.25 | –
328.15 K, x1 = 0.241 | 960.61 | –
328.15 K, x1 = 0.321 | 969.03 | –
328.15 K, x1 = 0.424 | 975.22 | –
328.15 K, x1 = 0.557 | 980.8 | –
328.15 K, x1 = 0.739 | 987.03 | –
328.15 K, x1 = 0.858 | 989.7 | –
328.15 K, x1 = 1 | 992 | –
333.15 K, x1 = 0.119 | 941.11 | 1.56
333.15 K, x1 = 0.241 | 956.95 | 4.25
333.15 K, x1 = 0.321 | 965.62 | 7.67
333.15 K, x1 = 0.424 | 971.88 | 15.92
333.15 K, x1 = 0.557 | 977.65 | 38.97
333.15 K, x1 = 0.739 | 984.05 | 120.9
333.15 K, x1 = 0.858 | 986.83 | 233.56
333.15 K, x1 = 1 | 989.17 | 588.69
338.15 K, x1 = 0.119 | 936.97 | 1.45
338.15 K, x1 = 0.241 | 953.32 | 3.85
338.15 K, x1 = 0.321 | 962.16 | 6.79
338.15 K, x1 = 0.424 | 968.56 | 13.71
338.15 K, x1 = 0.557 | 974.48 | 32.38
338.15 K, x1 = 0.739 | 981.09 | 94.93
338.15 K, x1 = 0.858 | 983.97 | 176.82
338.15 K, x1 = 1 | 986.38 | 426.28
343.15 K, x1 = 0.119 | 932.83 | 1.36
343.15 K, x1 = 0.241 | 949.69 | 3.5
343.15 K, x1 = 0.321 | 958.67 | 6.06
343.15 K, x1 = 0.424 | 965.24 | 11.91
343.15 K, x1 = 0.557 | 971.56 | 27.13
343.15 K, x1 = 0.739 | 978.13 | 75.65
343.15 K, x1 = 0.858 | 981.1 | 137.16
343.15 K, x1 = 1 | 983.63 | 316.66
348.15 K, x1 = 0.119 | 928.69 | 1.27
348.15 K, x1 = 0.241 | 946.02 | 3.2
348.15 K, x1 = 0.321 | 955.18 | 5.43
348.15 K, x1 = 0.424 | 961.92 | 10.41
348.15 K, x1 = 0.557 | 968.34 | 22.93
348.15 K, x1 = 0.739 | 975.19 | 61.29
348.15 K, x1 = 0.858 | 978.24 | 108.17
348.15 K, x1 = 1 | 980.88 | 237.14
353.15 K, x1 = 0.119 | 924.55 | 1.2
353.15 K, x1 = 0.241 | 942.33 | 2.93
353.15 K, x1 = 0.321 | 951.69 | 4.9
353.15 K, x1 = 0.424 | 958.62 | 9.16
353.15 K, x1 = 0.557 | 965.07 | 19.6
353.15 K, x1 = 0.739 | 972.25 | 50.08
353.15 K, x1 = 0.858 | 975.39 | 86.03
353.15 K, x1 = 1 | 978.13 | 181.41
